From ChEMBL document CHEMBL5143564, “PES derivative PESA is a potent tool to globally profile cellular targets of PES” (Bioorg Med Chem Lett, 2022)
Calls of active or inactive are those of the source. The calls are words filed in the database; no cut-off is given here.

Tests used:
[1] = target: T1, Plastin-2 (Homo sapiens) (UniProt P13796); assay: Binding affinity to plastin-2 in human DOHH-2 cells by MS analysis; type: cell-based
T1 sequence (whole entry): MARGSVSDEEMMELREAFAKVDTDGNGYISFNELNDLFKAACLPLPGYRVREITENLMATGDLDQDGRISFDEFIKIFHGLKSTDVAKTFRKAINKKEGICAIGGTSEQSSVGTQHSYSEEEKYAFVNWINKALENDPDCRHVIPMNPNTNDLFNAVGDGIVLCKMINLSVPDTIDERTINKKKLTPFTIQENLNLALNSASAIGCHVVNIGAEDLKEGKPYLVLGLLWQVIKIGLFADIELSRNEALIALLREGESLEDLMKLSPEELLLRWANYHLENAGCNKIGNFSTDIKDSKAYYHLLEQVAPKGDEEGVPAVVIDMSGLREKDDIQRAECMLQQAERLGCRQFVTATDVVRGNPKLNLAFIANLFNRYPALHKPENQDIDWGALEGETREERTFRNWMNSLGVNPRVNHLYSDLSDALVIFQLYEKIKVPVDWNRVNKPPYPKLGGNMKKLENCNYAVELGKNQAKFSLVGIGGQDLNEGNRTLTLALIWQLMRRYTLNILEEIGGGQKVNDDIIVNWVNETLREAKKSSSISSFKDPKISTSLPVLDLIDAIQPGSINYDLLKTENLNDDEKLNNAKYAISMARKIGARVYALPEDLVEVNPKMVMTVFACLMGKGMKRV

[2] = target: Glutathione S-transferase 3, mitochondrial (Homo sapiens) (UniProt O14880); assay: Binding affinity to MGST3 in human DOHH-2 cells by MS analysis; type: cell-based
[3] = target: T2, D-3-phosphoglycerate dehydrogenase (Homo sapiens) (UniProt O43175); assay: Binding affinity to D-3-phosphoglycerate dehydrogenase in human MDA-MB-453 cells measured after 6 hrs by pull-down assay; type: cell-based; settings: dose <= 20.0 µM, DDE = dose-dependent effect
T2 sequence (whole entry): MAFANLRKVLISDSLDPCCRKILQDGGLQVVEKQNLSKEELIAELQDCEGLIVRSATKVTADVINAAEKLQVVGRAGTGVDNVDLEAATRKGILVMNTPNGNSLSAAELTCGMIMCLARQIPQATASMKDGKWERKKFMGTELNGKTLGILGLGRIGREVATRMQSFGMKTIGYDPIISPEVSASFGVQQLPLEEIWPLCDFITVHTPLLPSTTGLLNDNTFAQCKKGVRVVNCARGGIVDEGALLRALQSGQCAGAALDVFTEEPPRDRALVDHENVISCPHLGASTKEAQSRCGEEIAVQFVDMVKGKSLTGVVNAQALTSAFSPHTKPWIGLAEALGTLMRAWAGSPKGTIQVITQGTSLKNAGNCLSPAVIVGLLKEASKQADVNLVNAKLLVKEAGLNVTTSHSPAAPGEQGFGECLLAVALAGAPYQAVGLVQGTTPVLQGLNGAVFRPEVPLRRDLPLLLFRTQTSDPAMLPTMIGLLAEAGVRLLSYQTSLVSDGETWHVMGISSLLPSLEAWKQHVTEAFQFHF

[4] = target: T2, D-3-phosphoglycerate dehydrogenase (Homo sapiens); assay: Binding affinity to D-3-phosphoglycerate dehydrogenase in human DOHH-2 cells by MS analysis; type: cell-based
[5] = system: MDA-MB-453; assay: Cytotoxicity against human MDA-MB-453 cells measured after 72 hrs; type: functional, cell-based
[6] = target: T3, Protein disulfide-isomerase A3 (Homo sapiens) (UniProt P30101); assay: Binding affinity to PDIA3 in human DOHH-2 cells measured after 6 hrs by pull-down assay; type: cell-based; settings: DDE = dose-dependent effect
T3 sequence (whole entry): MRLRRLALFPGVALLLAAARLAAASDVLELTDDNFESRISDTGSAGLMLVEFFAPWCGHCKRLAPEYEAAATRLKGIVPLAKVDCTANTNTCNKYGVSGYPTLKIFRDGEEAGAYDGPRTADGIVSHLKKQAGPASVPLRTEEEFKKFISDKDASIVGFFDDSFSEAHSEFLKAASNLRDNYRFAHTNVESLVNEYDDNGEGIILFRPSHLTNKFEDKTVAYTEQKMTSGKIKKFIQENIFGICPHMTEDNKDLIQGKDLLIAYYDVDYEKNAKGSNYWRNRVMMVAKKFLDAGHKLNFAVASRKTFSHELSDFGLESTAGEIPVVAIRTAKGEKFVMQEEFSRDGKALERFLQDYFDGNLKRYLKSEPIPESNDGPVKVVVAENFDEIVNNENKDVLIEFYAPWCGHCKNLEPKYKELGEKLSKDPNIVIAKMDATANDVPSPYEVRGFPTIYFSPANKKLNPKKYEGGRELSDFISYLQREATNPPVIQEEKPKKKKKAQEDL

[7] = GSH reactivity in pH 7.4 buffer assessed as GSH adduct formation by measuring half life at 50 uM by near-UV absorbance spectra analysis; type: physicochemical; settings: pH 7.4, 50 µM
[8] = species: Homo sapiens; assay: Binding affinity to ADP-bound full-length human HSP70 assessed as cysteine adduct formation at SBDalpha domain by measuring half life at 1 mM by fluorescence spectra analysis
[9] = system: DOHH-2; assay: Induction of autophagy in human DOHH-2 cells assessed as reduction in p62 expression at 0.5 to 8 uM measured after 24 hrs by Western blot analysis; type: functional, cell-based; settings: dose 0.5-8 µM
[10] = target: T4, Peroxiredoxin-1 (Homo sapiens) (UniProt Q06830); assay: Binding affinity to PRDX1 in human MDA-MB-453 cells measured after 6 hrs by pull-down assay; type: cell-based; settings: dose <= 20.0 µM, DDE = dose-dependent effect
T4 sequence (whole entry): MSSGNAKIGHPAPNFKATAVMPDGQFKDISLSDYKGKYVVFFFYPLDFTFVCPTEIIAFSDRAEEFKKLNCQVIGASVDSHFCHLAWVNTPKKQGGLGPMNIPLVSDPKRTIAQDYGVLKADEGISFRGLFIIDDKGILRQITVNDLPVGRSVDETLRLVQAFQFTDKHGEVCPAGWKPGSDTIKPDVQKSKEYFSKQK

[11] = system: DOHH-2; assay: Up regulation of HSP70 expression in human DOHH-2 cells at 0.5 to 8 uM measured after 24 hrs by Western blot analysis; type: functional, cell-based; settings: dose 0.5-8 µM
[12] = target: T5, Peroxiredoxin-6 (Homo sapiens) (UniProt P30041); assay: Binding affinity to PRDX6 in human DOHH-2 cells by MS analysis; type: cell-based
T5 sequence (whole entry): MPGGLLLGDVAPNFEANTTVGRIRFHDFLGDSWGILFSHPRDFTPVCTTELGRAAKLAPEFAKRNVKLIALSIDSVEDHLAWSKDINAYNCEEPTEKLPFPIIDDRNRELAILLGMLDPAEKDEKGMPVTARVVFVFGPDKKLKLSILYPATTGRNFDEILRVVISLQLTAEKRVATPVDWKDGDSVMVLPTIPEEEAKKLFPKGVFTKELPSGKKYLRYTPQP

[13] = system: DOHH-2; assay: Cytotoxicity against human DOHH-2 cells up to 20 uM measured after 24 hrs; type: functional, cell-based
[14] = target: T6, Tubulin alpha (Homo sapiens) (UniProt P0DPH7+P68366+Q71U36+P68363+Q9BQE3+Q6PEY2+A6NHL2+Q9NY65); assay: Binding affinity to alpha-tubulin in human MDA-MB-453 cells measured after 6 hrs by pull-down assay; type: cell-based; settings: dose <= 20.0 µM, DDE = dose-dependent effect
[15] = target: T6, Tubulin alpha (Homo sapiens); assay: Binding affinity to alpha-tubulin in human DOHH-2 cells measured after 6 hrs by pull-down assay; type: cell-based; settings: DDE = dose-dependent effect

Glutathione S-transferase 3, mitochondrial (Homo sapiens), sequence (O14880 whole entry): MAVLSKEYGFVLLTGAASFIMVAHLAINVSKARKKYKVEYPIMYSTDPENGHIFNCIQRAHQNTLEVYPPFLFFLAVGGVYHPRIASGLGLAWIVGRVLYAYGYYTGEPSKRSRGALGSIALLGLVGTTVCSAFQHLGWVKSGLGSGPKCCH

SMILES: C#Cc1cccc(C#CS(N)(=O)=O)c1
- Activity [1]: Active
- Activity [2]: Active
- Activity [3]: Dde
- Activity [4]: Active
- Activity [5]: Active
- Activity [6]: Dde
- t1/2 [7]: 3.91 min
- T1/2 [8]: 1.53 h
- Activity [9]: Active
- Activity [10]: Dde
- Activity [11]: Active
- Activity [12]: Active
- Activity [13]: Active
- Activity [14]: Dde
- Activity [15]: Dde
